US20090285887A1, “Pharmaceutical Composition Comprising A Plurality of Mini-Tablets Comprising A Factor XA Inhibitor” (priority 2006, published 2009)

Assay: Preliminary pharmacokinetic analysis of absorption throughout the GI tract
Format: in vivo
From the text: In one aspect of the invention, the pharmaceutical composition enables the Factor Xa inhibitor to be absorbed throughout the GI tract, i.e. in the duodenum (proximal small intestine), ileum (distal small intestine) and cecum/colon. […] Accordingly, this comprises a further aspect of the invention.

absorption throughout the GI tract: may be absorbed throughout the GI tract
Structure (SMILES): C[C@@H](C(=O)N1CCOCC1)N1CC[C@H](NS(=O)(=O)/C=C/c2ccc(Cl)s2)C1=O [Compound A, (E)-2-(5-chlorothien-2-yl)-N-{(3S)-1-[(1S)-1-methyl-2-morpholin-4-yl-2-oxoethyl]-2-oxopyrrolidin-3-yl}ethenesulfonamide]
